Assay [1] deals with T1, BaF3 cell line transfected with the oncogenic fusion protein NPM-ALK and expressing the mutation L1196M (Homo sapiens, UniProt Q9UM73, L1196M, cells depend on it).
T1 construct: fused on or other part: P06748 (Nucleophosmin)
Kind of assay: Tritiated thymidine uptake cell proliferation assay, BaF3 NPM-ALK L1196M. The class given is cell-based, murine. The following applies: for GI50: averaged IC50 values of cell proliferation inhibition, class letters, read-out: IC50 BaF3 NPM-ALK L1196M cells; for % Inhibition BaF3 NPM-ALK L1196M cells: percentage of inhibition of cell proliferation at 200 nM. As to the method:
(§1) Method: Tritiated Thymidine Uptake Cell Proliferation Assay
(§2) The following procedure was used with parent untransformed BaF3 cells, BaF3 cells transformed with the oncogenic fusion protein NPM/ALK, NPM/ALK positive SUDHL-1 cells, NPM/ALK positive SUPM2, ALK-negative HL60 cells, NPM/ALK positive KARPAS-299 cells. The parent untransformed BaF3 cells or Alk-negative HL60 cells are used as controls. Cells were seeded in U-bottomed 96-well plates at 10000 cells/well in a volume of 100 μl in supplemented medium. In the case of the parent untransformed BaF3 cells, the medium was supplemented with IL-3. Serial dilutions of inhibitors were added to the appropriate wells and volumes adjusted to 200 μl. Controls were treated with the equivalent volume of vehicle, DMSO, alone. Plates were incubated at 37° C. for 72 h. 3[H]-thymidine (1 μCi/well) was added for the last 16 h of incubation. Cells were harvested on to paper filters and 3[H]-thymidine incorporation was measured using a scintillation counter (1430 MicroBeta, Wallac, Turku, Finland). The 50% inhibitory concentration (IC50) was defined as the concentration of inhibitor, expressed in nanomolar units, that gave a 50% decrease in 3[H]-thymidine uptake compared with controls.
In Table 2 are listed results for selected examples of compounds of the invention, reported as percentage of inhibition of cell proliferation at 200 nM, obtained from cellular assays in BaF3 cell line transfected with the oncogenic fusion protein NPM-ALK and expressing the mutation L1196M.
In Table 3 are listed averaged IC50 values of cell proliferation inhibition for selected examples of compounds of the present invention, obtained from cellular assays in BaF3 cell line transfected with the oncogenic fusion protein NPM-ALK and expressing the mutation L1196M. The letter “A” designates an IC50 value between 1 nM and 50 nM, the letter “B” designates an IC50 value between 50 nM and 100 nM, the letter “C” designates an IC50 value between 100 and 500 nM.

Assay [2] deals with Karpas 299 lymphoma cell line positive for the oncogenic fusion protein NPM-ALK. Briefly: Tritiated thymidine uptake cell proliferation assay, Karpas 299. The format is cell-based. The conditions noted are these: Homo sapiens. As to the method:
as §1, §2
In Table 1 are listed results for selected examples of compounds of the invention, reported as percentage of inhibition of cell proliferation at 200 nM, obtained from cellular assays in Karpas 299 lymphoma cell line positive for the oncogenic fusion protein NPM-ALK.

The mark [3] stands for this setting: KARPAS-299, percentage of inhibition of cell proliferation at 200 nM, read-out: % Inhibition Karpas 299 cells.
Where [4] appears, read: KARPAS-299, read-out: % Inhibition Karpas 299 cells.

Read-outs that look alike come from different tables or passages of the source.

T1 sequence (Q9UM73 whole entry L1196M, the tested form may be a part): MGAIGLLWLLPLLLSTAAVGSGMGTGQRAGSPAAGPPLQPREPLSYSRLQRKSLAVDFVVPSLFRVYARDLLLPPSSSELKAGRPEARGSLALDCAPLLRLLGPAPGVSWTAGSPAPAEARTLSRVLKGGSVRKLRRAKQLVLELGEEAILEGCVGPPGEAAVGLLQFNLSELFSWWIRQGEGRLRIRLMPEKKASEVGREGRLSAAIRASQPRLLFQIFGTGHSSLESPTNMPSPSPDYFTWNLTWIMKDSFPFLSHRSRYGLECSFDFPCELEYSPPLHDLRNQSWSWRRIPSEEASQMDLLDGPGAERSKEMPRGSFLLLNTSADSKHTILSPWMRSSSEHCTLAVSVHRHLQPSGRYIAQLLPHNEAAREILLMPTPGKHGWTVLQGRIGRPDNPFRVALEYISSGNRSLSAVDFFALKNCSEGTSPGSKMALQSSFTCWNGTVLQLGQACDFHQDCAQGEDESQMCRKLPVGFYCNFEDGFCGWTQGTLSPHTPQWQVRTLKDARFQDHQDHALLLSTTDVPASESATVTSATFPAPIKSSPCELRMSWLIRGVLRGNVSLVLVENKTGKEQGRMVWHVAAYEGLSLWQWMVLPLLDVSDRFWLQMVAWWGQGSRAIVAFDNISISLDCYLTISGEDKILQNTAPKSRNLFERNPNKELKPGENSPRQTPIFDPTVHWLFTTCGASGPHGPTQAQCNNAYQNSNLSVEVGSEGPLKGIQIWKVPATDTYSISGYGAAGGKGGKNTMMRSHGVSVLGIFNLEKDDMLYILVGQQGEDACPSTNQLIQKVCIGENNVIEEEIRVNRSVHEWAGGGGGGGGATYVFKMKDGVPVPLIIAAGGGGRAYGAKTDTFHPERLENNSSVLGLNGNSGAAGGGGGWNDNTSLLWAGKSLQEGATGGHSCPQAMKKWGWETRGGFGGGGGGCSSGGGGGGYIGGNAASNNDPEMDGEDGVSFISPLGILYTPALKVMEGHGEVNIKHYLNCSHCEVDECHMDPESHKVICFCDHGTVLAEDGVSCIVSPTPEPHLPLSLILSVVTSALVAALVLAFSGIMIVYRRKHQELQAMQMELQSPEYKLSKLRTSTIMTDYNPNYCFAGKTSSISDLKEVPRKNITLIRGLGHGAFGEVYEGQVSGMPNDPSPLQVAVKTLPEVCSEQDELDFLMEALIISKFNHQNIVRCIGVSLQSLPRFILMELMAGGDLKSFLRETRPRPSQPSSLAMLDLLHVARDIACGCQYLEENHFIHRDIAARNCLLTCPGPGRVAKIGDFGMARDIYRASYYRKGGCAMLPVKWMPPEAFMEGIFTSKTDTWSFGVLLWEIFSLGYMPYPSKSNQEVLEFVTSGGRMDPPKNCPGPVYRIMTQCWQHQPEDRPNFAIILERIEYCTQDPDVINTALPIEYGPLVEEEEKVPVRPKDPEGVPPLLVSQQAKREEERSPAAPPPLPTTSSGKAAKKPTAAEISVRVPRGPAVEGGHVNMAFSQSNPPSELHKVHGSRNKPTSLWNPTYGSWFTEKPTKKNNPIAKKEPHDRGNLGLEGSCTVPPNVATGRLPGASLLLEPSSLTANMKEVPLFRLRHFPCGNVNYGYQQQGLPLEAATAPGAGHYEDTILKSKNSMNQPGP

Take `Cc1cc(O)ccc1-c1cc2[nH]nc(NC(=O)c3ccc(N4CCN(C)CC4)cc3)c2cc1Cc1cc(F)cc(F)c1` [Example 34, N-[5-[(3,5-difluorophenyl)methyl]-6-(4-hydroxy-2-methyl-phenyl)-1H-indazol-3-yl]-4-(4-methylpiperazin-1-yl)benzamide]: in assay [1], the GI50 was in the range of 1 to 50 nM and the “% Inhibition BaF3 NPM-ALK L1196M cells” value turned out to be 100%. In assay [2] (setting [3]), the inhibition (in general, how much of the control response was suppressed) at 0.2 µM is 100%.

Turning to `CN1CCN(c2ccc(C(=O)Nc3n[nH]c4cc(-c5ccc6[nH]ncc6c5)c(Cc5cc(F)cc(F)c5)cc34)cc2)CC1` [Example 35, N-[5-[(3,5-difluorophenyl)methyl]-6-(1H-indazol-5-yl)-1H-indazol-3-yl]-4-(4-methylpiperazin-1-yl)benzamide], in assay [1], the GI50 is 50 to 100 nM and the “% Inhibition BaF3 NPM-ALK L1196M cells” value came out at 96%. Further, the inhibition at 0.2 µM in assay [2] (setting [3]) stood at 100%.

Turning to `CN1CCN(c2ccc(C(=O)Nc3n[nH]c4cc(-c5ccc(O)cc5)c(Cc5cccc(F)c5)cc34)c(NC3CCOCC3)c2)CC1` [Example 38, N-[5-[(3-fluorophenyl)methyl]-6-(4-hydroxyphenyl)-1H-indazol-3-yl]-4-(4-methylpiperazin-1-yl)-2-(tetrahydropyran-4-ylamino)benzamide], in assay [1], the GI50 lay within 1 to 50 nM and the “% Inhibition BaF3 NPM-ALK L1196M cells” value is 100%. Moreover, the inhibition at 0.2 µM in assay [2] (setting [4]) amounted to 100%.

Regarding `COCCNc1cc(N2CCN(C)CC2)ccc1C(=O)Nc1n[nH]c2cc(-c3ccc(O)c(F)c3)c(Cc3cccc(F)c3)cc12` [Example 42, N-[6-(3-fluoro-4-hydroxy-phenyl)-5-[(3-fluorophenyl)methyl]-1H-indazol-3-yl]-2-(2-methoxyethylamino)-4-(4-methylpiperazin-1-yl)benzamide], in assay [1], the GI50 was in the range of 50 to 100 nM and the “% Inhibition BaF3 NPM-ALK L1196M cells” value worked out at 93%. Also, the inhibition at 0.2 µM in assay [2] (setting [4]) came out at 100%.

The values above are taken from patent US10336707B2, “Heterocyclic derivatives modulating activity of certain protein kinases” (EUDENDRON S.R.L., priority 2014, dated 2019).
